Reference: ChEMBL document CHEMBL4613266, “Discovery and Structure Relationships of Salicylanilide Derivatives as Potent, Non-acidic P2X1 Receptor Antagonists” (J Med Chem, 2020)

Assays:
P2X purinoceptor 3 = molecular target: T1, P2X purinoceptor 3 (Homo sapiens, UniProt P56373); test: Antagonist activity at human P2X3 receptor expressed in human 1321N1 cells assessed as inhibition of ATP-induced cytosolic calcium influx preincubated for 30 mins followed by ATP addition by Fluo-4 AM dye-based fluorescence assay; assay type: cell-based
T1 sequence (P56373 whole entry): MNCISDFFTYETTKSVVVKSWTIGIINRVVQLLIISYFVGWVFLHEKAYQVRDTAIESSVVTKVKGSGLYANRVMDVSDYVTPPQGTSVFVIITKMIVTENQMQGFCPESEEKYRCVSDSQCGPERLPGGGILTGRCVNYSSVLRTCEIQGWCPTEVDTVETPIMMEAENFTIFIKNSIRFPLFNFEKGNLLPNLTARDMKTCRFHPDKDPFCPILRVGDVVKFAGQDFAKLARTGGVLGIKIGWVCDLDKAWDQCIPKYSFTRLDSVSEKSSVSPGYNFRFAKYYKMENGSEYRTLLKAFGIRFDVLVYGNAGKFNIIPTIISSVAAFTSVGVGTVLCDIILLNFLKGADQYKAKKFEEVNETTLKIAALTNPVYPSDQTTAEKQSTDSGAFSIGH

P2X purinoceptor 1 [1] = molecular target: P2X purinoceptor 1 (Homo sapiens, UniProt P51575); test: Antagonist activity at non-desensitizing human P2X1 receptor ( P2X2/P2X1 chimera) expressed in human 1321N1 cells assessed as inhibition of ATP-induced calcium influx pre-incubated for 30 mins before ATP stimulation by FLIPR assay relative to control; assay type: cell-based
[2] = molecular target: T2, P2X purinoceptor 3 (Homo sapiens) (UniProt P56373); test: Antagonist activity at human P2X3 receptor expressed in human 1321N1 cells assessed as inhibition of ATP-induced cytosolic calcium influx at 10 uM preincubated for 30 mins followed by ATP addition by Fluo-4 AM dye-based fluorescence assay relative to control; assay type: cell-based
T2 sequence (whole entry): T1 sequence (P56373 whole entry)

P2X purinoceptor 2 = molecular target: T3, P2X purinoceptor 2 (Homo sapiens, UniProt Q9UBL9); test: Antagonist activity at human P2X2 receptor expressed in human 1321N1 cells assessed as inhibition of ATP-induced cytosolic calcium influx preincubated for 30 mins followed by ATP addition by Fluo-4 AM dye-based fluorescence assay; assay type: cell-based
T3 sequence (Q9UBL9 whole entry): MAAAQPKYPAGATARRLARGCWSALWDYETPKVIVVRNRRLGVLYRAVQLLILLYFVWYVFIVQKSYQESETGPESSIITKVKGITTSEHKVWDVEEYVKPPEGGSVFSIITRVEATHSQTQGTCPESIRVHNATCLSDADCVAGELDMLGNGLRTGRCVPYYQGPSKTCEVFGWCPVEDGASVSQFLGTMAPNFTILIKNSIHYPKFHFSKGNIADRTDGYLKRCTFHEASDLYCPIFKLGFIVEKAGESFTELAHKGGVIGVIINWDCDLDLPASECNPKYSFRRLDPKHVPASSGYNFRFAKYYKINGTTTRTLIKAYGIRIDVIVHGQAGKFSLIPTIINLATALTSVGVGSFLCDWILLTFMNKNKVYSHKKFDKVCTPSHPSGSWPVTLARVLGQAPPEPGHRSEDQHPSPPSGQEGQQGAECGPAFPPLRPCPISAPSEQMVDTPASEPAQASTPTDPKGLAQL

[3] = molecular target: T4, P2X purinoceptor 2 (Homo sapiens) (UniProt Q9UBL9); test: Antagonist activity at human P2X2 receptor expressed in human 1321N1 cells assessed as inhibition of ATP-induced cytosolic calcium influx at 10 uM preincubated for 30 mins followed by ATP addition by Fluo-4 AM dye-based fluorescence assay relative to control; assay type: cell-based
T4 sequence (whole entry): T3 sequence (Q9UBL9 whole entry)

P2X purinoceptor 4 = molecular target: T5, P2X purinoceptor 4 (Homo sapiens, UniProt Q99571); test: Antagonist activity at human P2X4 receptor expressed in human 1321N1 cells assessed as inhibition of ATP-induced cytosolic calcium influx preincubated for 30 mins followed by ATP addition by Fluo-4 AM dye-based fluorescence assay; assay type: cell-based
T5 sequence (Q99571 whole entry): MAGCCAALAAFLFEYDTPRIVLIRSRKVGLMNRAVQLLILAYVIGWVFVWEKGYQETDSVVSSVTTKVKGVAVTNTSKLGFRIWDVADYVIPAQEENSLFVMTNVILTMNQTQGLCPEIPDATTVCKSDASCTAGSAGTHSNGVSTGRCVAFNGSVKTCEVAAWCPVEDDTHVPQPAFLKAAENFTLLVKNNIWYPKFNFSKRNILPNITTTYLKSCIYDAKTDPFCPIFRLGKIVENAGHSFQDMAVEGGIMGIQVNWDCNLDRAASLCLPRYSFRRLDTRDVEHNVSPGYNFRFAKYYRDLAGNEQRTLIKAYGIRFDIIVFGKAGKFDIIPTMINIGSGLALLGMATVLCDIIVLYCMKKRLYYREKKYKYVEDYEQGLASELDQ

P2X purinoceptor 7 = molecular target: T6, P2X purinoceptor 7 (Homo sapiens, UniProt Q99572); test: Antagonist activity at human P2X7 receptor expressed in human 1321N1 cells assessed as inhibition of ATP-induced cytosolic calcium influx preincubated for 30 mins followed by ATP addition by Fluo-4 AM dye-based fluorescence assay; assay type: cell-based
T6 sequence (Q99572 whole entry): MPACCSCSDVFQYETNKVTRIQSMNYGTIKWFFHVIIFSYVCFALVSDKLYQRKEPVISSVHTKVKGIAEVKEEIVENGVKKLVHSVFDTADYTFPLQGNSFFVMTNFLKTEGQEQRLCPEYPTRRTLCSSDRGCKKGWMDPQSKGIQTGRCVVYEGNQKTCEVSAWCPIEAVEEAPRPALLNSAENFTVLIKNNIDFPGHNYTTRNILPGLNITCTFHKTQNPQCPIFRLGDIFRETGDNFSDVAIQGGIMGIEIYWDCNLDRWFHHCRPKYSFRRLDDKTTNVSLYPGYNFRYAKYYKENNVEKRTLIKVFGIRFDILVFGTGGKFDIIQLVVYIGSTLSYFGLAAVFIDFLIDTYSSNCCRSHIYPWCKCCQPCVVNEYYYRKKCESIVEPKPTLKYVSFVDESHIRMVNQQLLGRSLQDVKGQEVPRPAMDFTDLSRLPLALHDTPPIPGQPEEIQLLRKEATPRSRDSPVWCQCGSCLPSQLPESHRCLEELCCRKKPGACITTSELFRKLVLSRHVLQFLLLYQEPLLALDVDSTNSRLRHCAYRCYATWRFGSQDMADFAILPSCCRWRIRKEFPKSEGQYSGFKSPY

[4] = molecular target: T7, P2X purinoceptor 1 (Homo sapiens) (UniProt P51575); test: Antagonist activity at non-desensitizing human P2X1 receptor ( P2X2/P2X1 chimera) expressed in human 1321N1 cells assessed as inhibition of ATP-induced calcium influx at 10 uM pre-incubated for 30 mins before ATP stimulation by FLIPR assay relative to control; assay type: cell-based
T7 sequence (whole entry): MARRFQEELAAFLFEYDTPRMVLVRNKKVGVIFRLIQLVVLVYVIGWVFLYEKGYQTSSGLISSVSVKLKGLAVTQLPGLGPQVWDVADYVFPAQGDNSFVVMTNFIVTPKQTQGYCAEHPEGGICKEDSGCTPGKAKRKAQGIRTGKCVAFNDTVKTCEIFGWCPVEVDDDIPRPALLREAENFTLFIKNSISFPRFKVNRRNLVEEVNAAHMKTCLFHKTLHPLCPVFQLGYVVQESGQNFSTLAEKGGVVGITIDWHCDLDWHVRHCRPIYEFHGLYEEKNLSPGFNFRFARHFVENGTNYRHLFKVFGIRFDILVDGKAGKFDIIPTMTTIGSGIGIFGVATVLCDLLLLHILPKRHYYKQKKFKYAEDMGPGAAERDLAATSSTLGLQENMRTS

P2X purinoceptor 1 [5] = molecular target: T8, P2X purinoceptor 1 (Rattus norvegicus, UniProt P47824); test: Antagonist activity at rat P2X1 receptor
T8 sequence (P47824 whole entry): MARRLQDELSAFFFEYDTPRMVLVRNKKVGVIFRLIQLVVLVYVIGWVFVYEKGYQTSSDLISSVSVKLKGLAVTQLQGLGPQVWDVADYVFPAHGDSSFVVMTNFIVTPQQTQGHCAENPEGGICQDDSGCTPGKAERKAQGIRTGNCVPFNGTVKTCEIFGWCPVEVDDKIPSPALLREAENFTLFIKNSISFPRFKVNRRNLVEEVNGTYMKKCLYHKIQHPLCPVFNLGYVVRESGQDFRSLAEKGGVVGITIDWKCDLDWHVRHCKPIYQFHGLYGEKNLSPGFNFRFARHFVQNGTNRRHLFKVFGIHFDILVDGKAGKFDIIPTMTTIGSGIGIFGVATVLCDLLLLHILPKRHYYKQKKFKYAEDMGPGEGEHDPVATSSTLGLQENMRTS

[6] = molecular target: T7, P2X purinoceptor 1 (Homo sapiens); test: Antagonist activity P2X1 receptor in human platelets assessed as inhibition of ADP-induced platelet aggregation pre-incubated for 30 mins before ADP stimulation by aggregometry relative to control; assay type: cell-based
[7] = molecular target: T7, P2X purinoceptor 1 (Homo sapiens); test: Antagonist activity P2X1 receptor in Apyrase pre-treated human platelets assessed as inhibition of TRAP6-induced platelet aggregation pre-incubated for 30 mins before TRAP6 stimulation by aggregometry relative to control; assay type: cell-based
[8] = molecular target: T7, P2X purinoceptor 1 (Homo sapiens); test: Antagonist activity at non-desensitizing human P2X1 receptor ( P2X2/P2X1 chimera) expressed in human 1321N1 cells assessed as inhibition of ATP-induced calcium influx at 100 uM pre-incubated for 30 mins before ATP stimulation by FLIPR assay relative to control; assay type: cell-based
[9] = molecular target: T7, P2X purinoceptor 1 (Homo sapiens); test: Antagonist activity at non-desensitizing human P2X1 receptor ( P2X2/P2X1 chimera) expressed in human 1321N1 cells assessed as inhibition of ATP-induced calcium influx at 1 uM pre-incubated for 30 mins before ATP stimulation by FLIPR assay relative to control; assay type: cell-based

Structure (SMILES)	IC50 (P2X purinoceptor 3)	IC50 (P2X purinoceptor 1 [1])	inhibition [2]	IC50 (P2X purinoceptor 2)	inhibition [3]	IC50 (P2X purinoceptor 4)	IC50 (P2X purinoceptor 7)	inhibition [4]	IC50 (P2X purinoceptor 1 [5])	inhibition [6]	inhibition [7]	inhibition [8]	inhibition [9]
O=C(Nc1cc([N+](=O)[O-])cc(C(F)(F)F)c1)c1cc(Cl)ccc1O	> 10000 nM	31.6 nM	16%	> 10000 nM	5%	42.6 nM	143 nM	81%	–	–	–	–	–
O=C(N[C@H](Cc1cscn1)C(=O)N[C@@H](CC1CCCCC1)[C@@H](O)[C@@H](O)C1CC1)c1nc2ccccc2[nH]1	–	496 nM	–	–	–	–	–	100%	3000 nM	–	–	–	–
Cc1nc(/N=N/c2ccc(S(=O)(=O)O)cc2S(=O)(=O)O)c(COP(=O)(O)O)c(C=O)c1O	–	–	–	–	–	–	–	–	1000 nM	–	–	–	–
O=C(Nc1cc(Cl)cc(Cl)c1)c1cc(Cl)ccc1O	> 10000 nM	29.3 nM	5%	> 10000 nM	-5%	712 nM	70.4 nM	56%	–	26%	13%	–	–
O=C(Nc1cc(C(F)(F)F)cc(C(F)(F)F)c1)c1ccc(Cl)cc1O	> 10000 nM	23.1 nM	2%	> 10000 nM	-5%	209 nM	196 nM	59%	–	–	–	–	–
O=C(Nc1ccc(Cl)c([N+](=O)[O-])c1)c1cc(Cl)ccc1O	–	13500 nM	–	–	–	–	–	–	–	–	–	80%	–
O=C(Nc1cccc(Br)c1)c1ccccc1O	–	2690 nM	–	–	–	–	–	–	–	–	–	98%	–
O=C(Nc1cc(C(F)(F)F)cc(C(F)(F)F)c1)c1cccc(Cl)c1O	> 10000 nM	58 nM	28%	> 10000 nM	13%	48.8 nM	177 nM	83%	–	–	–	–	–
O=C(Nc1cc([N+](=O)[O-])cc(C(F)(F)F)c1)c1cccc(Cl)c1O	–	219 nM	–	–	–	–	–	–	–	–	–	83%	–
Cc1ccc(C(=O)Nc2ccc(S(=O)(=O)O)c3cc(S(=O)(=O)O)cc(S(=O)(=O)O)c23)cc1NC(=O)c1cccc(NC(=O)Nc2cccc(C(=O)Nc3cc(C(=O)Nc4ccc(S(=O)(=O)O)c5cc(S(=O)(=O)O)cc(S(=O)(=O)O)c45)ccc3C)c2)c1 [SURAMIN]	–	–	–	–	–	–	–	> 90%	1000 to 1700 nM	–	–	–	> 40%
